Test [1] deals with AP-1. In words: AP-1 luciferase reporter assay (pAPLuc) in HeLa cells. In kind it is cell-based. The protocol: In the same manner as described in Experimental example 1, HeLa cells were transfected with the AP-1 reporter gene plasmid pAPLuc. After 20 hours, the cells were pretreated with cPrG-HCl (1 μM) for 1 hour and then stimulated with TNFα (20 ng/ml) or PMA (1 μg/ml) for 4 hours, after which, luciferase activity was measured. Each activity was corrected for the amount of protein.

A further test has as its system caspase-3. The experiment in a line: Caspase-3 assay with DEVD-AFC on cell extracts. In kind it is cell-based. The note with it: HeLa cells, cPrG-HCl and TNFα, FIG. 1B; hydrochloride. The method, then: Assay for apoptotic processes: Cell viability was determined by dye exclusion assay using 0.1% trypan blue. DNA fragmentation was analyzed as described previously (Kawauchi, K. et al. (1997) Biochem. Biophys. Res. Commun. 237, 543-547). In the caspase-3 assay, cells were disrupted by freeze-thaw in an extraction buffer (50 mM Tris-HCl, pH7.4, 1 mM EGTA, 5 mM EDTA, 5 mM MgCl2, 1 mM APMSF, 10 μg/ml pepstatin, 10 μg/ml leupeptin, and 1 mM DTT). Then the suspension was centrifuged at 15,000 rpm for 20 min, and the supernatants obtained were incubated at 37° C. for 60 min in a reaction buffer (50 mM Tris-HCl, pH7.4, 1 mM EDTA, 10 mM EGTA) with 20 μM of the fluorogenic substrate DEVD-AFC (Peptide Institute, Inc., Japan). Cleavage of the substrates was quantified by measuring the fluorescence of 7-amino-4-trifluomethyl coumarin released using a spectrofluorometer (Shimadzu RF5000) with excitation at 380 mn and emission at 460 nm.
HeLa cells were treated with TNFα and cPrG.HCl and the effect of cPrG.HCl on apoptosis was examined by measuring DNA fragmentation and survivability.

For test [2], the system named is AP-1. In words: AP-1 luciferase reporter assay in various kinds of cells. In kind it is cell-based, human; African green monkey. Conditions: all the cells tested: U373, 293, COS7, MKN45; FIGS. 6A to 6F. The method, then: In order to find out whether the suppression of NF-κB and AP-1 activation was specific to HeLa cells used above, analysis was made with various kind of cells. The cells used were U373 cells (human brain tumor cells), 293 cells (human embryo-derived kidney cells), COS7 cells (African green monkey kidney-derived cells), and MKN45 cells (human gastric tumor cells).
The NF-κB reporter plasmid pIG3Luc was incorporated into cells by transfection. After 24 hours, the cells were pretreated with cPrG-HCl at a specified concentration for 1 hour and then stimulated with TNFα (20 ng/ml) or PMA (1 μg/ml) for 4 hours, after which luciferase activity was measured. Each activity was corrected for the amount of protein.
In general terms: In a reporter assay the amount or activity of a reporter protein is the signal.

The next test relates to IL-8 promoter. The experiment in a line: IL-8 promoter luciferase assay (pIL-8Luc) in HeLa cells. In kind it is cell-based. The note with it: TNFα 20 ng/ml 4 hours, FIG. 7. The method, then:
Now in order to analyze the effect of cPrG-HCl on IL-8 gene expression which is controlled by transcription factors such as NF-κB and AP-1, luciferase assay was carried out using a reporter plasmid (pIL-8Luc) in which the luciferase gene is bound downstream of the IL-8 promoter region. In the IL-8 promoter, NF-κB, AP-1, and NF-IL6 binding sequences are present.
The pIL-8Luc was incorporated into HeLa cells by transfection. After 24 hours, the cells were pretreated with cPrG-HCl at a specified concentration for 1 hour and then stimulated with TNFα (20 ng/ml) for 4 hours, after which luciferase activity was measured.

For test [3], the system named is NF-κB. The note with it: earlier abstract of the inventors (Kamata et al., 2000); cited from earlier work.
The test system of test [4] is AP-1. In words: EMSA of AP-1 DNA binding activity. In kind it is cell-based. The protocol: In addition, in order to reveal the mechanism of the suppression of AP-1 transcriptional activation, the effect of cPrG-HCl on upstream kinases, i.e., JNK and p38, was analyzed. Further, relationship between the suppression of AP-1 transcriptional activation by cPrG-HCl and the acidification of intracellular pH was studied.
On the technique in general: Mobility shift assays separate free from complexed probe on a gel.

For test [5], the system named is NF-κB. In words: NF-κB luciferase gene reporter assay (pIG3Luc) in HeLa cells. In kind it is cell-based. The source says: The plasmids, pRKF-IKKα and pRKHA-IKKβ have been described previously (Oka, S., Kamata, H., Kamata, K., Yagisawa, H. and Hirata, H. (2000) FEBS Lett., 472, 196-202). pRKF-IKKαEE and pRK-HA-IKKβEE encode constitutively active mutants of IKKα, in which 176 and 180 serine residues in an activation loop are replaced by glutamic acid residues, and IKKβ, in, which 177 and 181 serine residues are replaced by glutamic acid residues, respectively. A reporter plasmid pIG3Luc for NF-κB encodes triple NF-κB binding site sequences (AGCTTCAGAGGGGACTRANSCRIPTIONCCGAGAGG) (SEQ ID NO: 2) followed by the luciferase gene. A control plasmid, pBKRLuc, was obtained from Toyobo (Toyo B-Net Co., Japan). pcDNAF-MEKK1, pRKF-p65, pEFBOSHA-Rac1-DA, and pEFBOSHA-Cdc42-DA, are the expression plasmids for MEKK1, the NF-κB subunit p65, constitutively active Rac1 and Cdc42, respectively.
Luciferase gene reporter assay and Kinase assays of IKK: HeLa cells were transfected with the reporter plasmids described above using Lipofectin (GIBCO BRL). After 24-48 hr, the luciferase activity was determined using the Luciferase Assay System (Promega). The kinase activity of IKKα and IKKβ were analyzed by immune complex kinase assay as described previously (Oka, S., Kamata, H., Kamata, K., Yagisawa, H. and Hirata, H. (2000) FEBS Lett. 472, 196-202). The substrates was using GST-IκBα(1-55) or GST-p65(399-551).
The gene expression induction by NF-κB activation plays the most important role among “life” signals by TNFα. Therefore, the NF-κB reporter gene was introduced into the cells to analyze the effect of cPrG-HCl by luciferase assay.
NF-κB is translocated into the nucleus also by activation with low-molecular-weight G proteins Rac1 and Cdc42 or MEKK1 and induces gene expression. An activated Rac1, Cdc42 or MEKK1 expression plasmid was introduced together with the NF-κB reporter gene into cells and the effect of cPrG-HCl on NF-κB activation was measured by luciferase assay (FIG. 4A and FIG. 4B).

Molecules are shown by their SMILES. Entries after “also recorded” stand apart in the source; their conditions may differ. Counter-ions that a name gives are not always drawn.

As for `COC1=CC(c2ccc[nH]2)=N/C1=C\c1[nH]c(C)c2c1C(C)CCC2` (stereo not shown) [cPrG-HCl, Cycloprodigiosin hydrochloride], the AP-1 transcriptional activity result in the test with AP-1 [1] (HeLa cells, 1 μM, TNFα (20 ng/ml) or PMA (1 μg/ml), FIG. 5) is given as “significantly suppressed”. Moreover, the “PMA-induced AP-1 transcriptional activation” value with AP-1 [1] (in the presence of imidazole) was “suppressed”. The caspase-3 activation entry with caspase-3 was “markedly induced; also recorded: marked synergistic caspase-3 activation”. For the same molecule, in the test with AP-1 [2], the AP-1 transcriptional activation result is “suppressed”. In the test on IL-8 promoter, the “IL-8 promoter-dependent transcriptional activity induced by TNFα” value is on record as “markedly suppressed”. In the test on NF-κB [3], the “nuclear translocation of NF-κB” value was “no suppressive effect”. Besides, in the test with AP-1 [4], the “DNA binding activity of AP-1” value is “no inhibitory effect”. Besides, in the test with NF-κB [5], the “NF-κB-dependent gene expression induced by IKKα” value is recorded as “Suppresses”, the “NF-κB-dependent gene expression induced by IKKβ” value is recorded as “Suppresses” and the “NF-κB-dependent gene expression induced by p65” value is given as “Suppresses”. Moreover, the “PMA-induced activation of NF-κB” value in the test on NF-κB [5] (FIG. 3A) was “Suppresses”. Also, the “TNFα-induced NF-κB activation (gene expression induction, luciferase)” value in the test with NF-κB [5] (HeLa cells, FIG. 2A, 2C, hydrochloride) is reported as “inhibited; also recorded: concentration-dependently suppressed”. The “NF-κB activation induced by MEKK1” value in the test on NF-κB [5] (MEKK1 expression plasmid with reporter gene, FIG. 4) was “suppressed”. In addition, the “NF-κB activation induced by Cdc42” value in the test with NF-κB [5] (activated Cdc42 expression plasmid with reporter gene, FIG. 4) is “suppressed”. Moreover, the “NF-κB activation induced by Rac1” value in the test with NF-κB [5] (activated Rac1 expression plasmid with reporter gene, FIG. 4) is given as “suppressed”. For the same molecule, the “TNFα-induced NF-κB activation” value with NF-κB [5] (in the presence of imidazole, FIG. 2C) is listed as “suppressed”.

Source of the values: patent publication US20040048791A1, “Method for treating neoplastic cells using cycloprodigiosin or salt thereof” (priority 2002, published 2004).
